# From US20240226115A1, “AXL INHIBITOR COMPOUNDS” (ARCUS BIOSCIENCES, INC., priority 2021, published 2024)
# What was measured:
# [1] = target: T1, Axl (Homo sapiens, UniProt P30530); test: Axl NanoBRET intracellular kinase assay (Cell Binding); parameters: host or cells: HEK-293; details: HEK-293 cells transfected with Axl-NanoLuc fusion vector; displacement of K-5 NanoBRET tracer
# T1 sequence (P30530 26-894): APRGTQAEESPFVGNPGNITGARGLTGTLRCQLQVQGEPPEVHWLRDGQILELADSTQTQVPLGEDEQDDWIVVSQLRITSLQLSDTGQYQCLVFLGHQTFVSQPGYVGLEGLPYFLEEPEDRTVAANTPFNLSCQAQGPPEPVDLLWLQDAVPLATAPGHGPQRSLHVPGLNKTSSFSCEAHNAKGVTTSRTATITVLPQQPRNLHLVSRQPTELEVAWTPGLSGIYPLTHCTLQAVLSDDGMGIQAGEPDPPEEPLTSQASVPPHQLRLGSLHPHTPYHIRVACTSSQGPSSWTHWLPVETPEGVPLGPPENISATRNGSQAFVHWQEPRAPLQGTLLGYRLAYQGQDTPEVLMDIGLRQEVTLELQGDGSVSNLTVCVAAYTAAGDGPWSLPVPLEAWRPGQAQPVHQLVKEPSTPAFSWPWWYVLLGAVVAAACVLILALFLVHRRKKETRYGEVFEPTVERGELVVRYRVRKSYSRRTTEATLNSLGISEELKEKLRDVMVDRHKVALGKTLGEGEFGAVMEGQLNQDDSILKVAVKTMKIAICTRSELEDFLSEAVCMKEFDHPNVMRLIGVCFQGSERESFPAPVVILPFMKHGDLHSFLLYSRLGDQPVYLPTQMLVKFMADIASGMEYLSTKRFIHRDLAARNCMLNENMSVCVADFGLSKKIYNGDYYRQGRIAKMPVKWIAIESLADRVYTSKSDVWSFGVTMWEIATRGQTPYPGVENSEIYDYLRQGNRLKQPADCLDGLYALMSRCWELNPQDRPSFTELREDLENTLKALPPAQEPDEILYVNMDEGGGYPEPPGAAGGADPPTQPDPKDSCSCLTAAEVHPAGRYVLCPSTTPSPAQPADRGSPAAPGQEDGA
# Method in brief: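 Intracellular binding measured as loss of BRET (610 nm/450 nm) when compounds displace 0.35 μM K-5 tracer from Axl-NanoLuc in transfected HEK-293 cells.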
# [2] = target: T1, Axl; test: HTRF KinEASE-TK biochemical potency, AXL; parameters: purchased Invitrogen; details: 5 nM AXL, 700 μM ATP
# Method in brief: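 Enzyme preincubated with compound 1 h at RT; final 5 nM AXL or 1 nM TYRO3/MER, 800 nM TK substrate-biotin, 700 μM ATP, HEPES pH 7.4, MgCl2, 1% DMSO, 2 h at RT. HTRF 665/620 ratio read after streptavidin-XL665/cryptate antibody detection; percent activity relative to DMSO and pre-stopped controls.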
SMILES,IC50 [1],IC50 [2]
"O=C1NCCOc2cc(-c3n[nH]c4ncc(-c5ccc6c(c5)CCC(N5CC[C@@H](O)C5)CC6)cc34)ccc21 (stereo partly drawn) [Example 51, 8-(5-(7-((R)-3-Hydroxypyrrolidin-1-yl)-6,7,8,9-tetrahydro-5H-benzo[7]annulen-2-yl)-1H-pyrazolo[3,4-b]pyridin-3-yl)-3,4-dihydrobenzo[f][1,4]oxazepin-5(2H)-one]",100 to 1000 nM,< 100 nM
"O=C1NCCOc2cc(-c3n[nH]c4ncc(-c5ccc6c(c5)CCC(N5CCC5)CC6)cc34)ccc21 (stereo not shown) [Example 52, 8-(5-(7-(Azetidin-1-yl)-6,7,8,9-tetrahydro-5H-benzo[7]annulen-2-yl)-1H-pyrazolo[3,4-b]pyridin-3-yl)-3,4-dihydrobenzo[f][1,4]oxazepin-5(2H)-one]",< 100 nM,< 100 nM
"O=C1NCCOc2cc(-c3n[nH]c4ncc(-c5ccc6c(c5)CCNCC6)cc34)ccc21 [Example 53, 8-(5-(2,3,4,5-Tetrahydro-1H-benzo[d]azepin-7-yl)-1H-pyrazolo[3,4-b]pyridin-3-yl)-3,4-dihydrobenzo[f][1,4]oxazepin-5(2H)-one]",100 to 1000 nM,< 100 nM
"O=C1NCCOc2cc(-c3n[nH]c4ncc(-c5ccc6c(c5)CCNC6)cc34)ccc21 [Example 54, 8-(5-(1,2,3,4-Tetrahydroisoquinolin-6-yl)-1H-pyrazolo[3,4-b]pyridin-3-yl)-3,4-dihydrobenzo[f][1,4]oxazepin-5(2H)-one]",100 to 1000 nM,< 100 nM
"O=C1NCCOc2cc(-c3n[nH]c4ncc(-c5ccc6c(c5)CNCC6)cc34)ccc21 [Example 55, 8-(5-(1,2,3,4-Tetrahydroisoquinolin-7-yl)-1H-pyrazolo[3,4-b]pyridin-3-yl)-3,4-dihydrobenzo[f][1,4]oxazepin-5(2H)-one]",100 to 1000 nM,< 100 nM
"C[C@@H]1CCCN1C1CCc2cc(F)c(-c3cnc4[nH]nc(-c5ccc6c(c5)OCCNC6=O)c4c3)cc2CC1 (stereo partly drawn) [Example 58, 8-(5-{3-Fluoro-7-[(2R)-2-methylpyrrolidin-1-yl]-6,7,8,9-tetrahydro-5H-benzo[7]annulen-2-yl}-1H-pyrazolo[3,4-b]pyridin-3-yl)-2,3,4,5-tetrahydro-1,4-benzoxazepin-5-one]",< 100 nM,< 100 nM
"C[C@@H]1CNC(=O)c2ccc(-c3n[nH]c4ncc(-c5ccc6c(c5)CCC(N5CCC[C@H]5C)CC6)cc34)cc2O1 (stereo partly drawn) [Example 59, (2R)-2-Methyl-8-(5-{7-[(2R)-2-methylpyrrolidin-1-yl]-6,7,8,9-tetrahydro-5H-benzo[7]annulen-2-yl}-1H-pyrazolo[3,4-b]pyridin-3-yl)-2,3,4,5-tetrahydro-1,4-benzoxazepin-5-one]",< 100 nM,< 100 nM
"C[C@@H]1CCCN1C1CCc2ccc(-c3cnc4[nH]nc(-c5ccc6c(c5F)OCCNC6=O)c4c3)cc2CC1 (stereo partly drawn) [Example 60, 9-Fluoro-8-(5-{7-[(2R)-2-methylpyrrolidin-1-yl]-6,7,8,9-tetrahydro-5H-benzo[7]annulen-2-yl}-1H-pyrazolo[3,4-b]pyridin-3-yl)-2,3,4,5-tetrahydro-1,4-benzoxazepin-5-one]",< 100 nM,< 100 nM

# More lines, now with the values ahead:
IC50 [1],IC50 [2],SMILES
< 100 nM,< 100 nM,"C[C@@H]1CCCN1C1CCc2ccc(-c3cnc4[nH]nc(-c5cc6c(cc5F)C(=O)NCCO6)c4c3)cc2CC1 (stereo partly drawn) [Example 61, 7-Fluoro-8-(5-{7-[(2R)-2-methylpyrrolidin-1-yl]-6,7,8,9-tetrahydro-5H-benzo[7]annulen-2-yl}-1H-pyrazolo[3,4-b]pyridin-3-yl)-2,3,4,5-tetrahydro-1,4-benzoxazepin-5-one]"
< 100 nM,< 100 nM,"C[C@@H]1CCCN1C1CCc2ccc(-c3cnc4[nH]nc(-c5ccc6c(c5)O[C@@H](C)CNC6=O)c4c3)cc2CC1 (stereo partly drawn) [Example 62, (2S)-2-Methyl-8-(5-{7-[(2R)-2-methylpyrrolidin-1-yl]-6,7,8,9-tetrahydro-5H-benzo[7]annulen-2-yl}-1H-pyrazolo[3,4-b]pyridin-3-yl)-2,3,4,5-tetrahydro-1,4-benzoxazepin-5-one]"
100 to 1000 nM,< 100 nM,"O=C1NCCOc2cc(-c3n[nH]c4ncc(-c5ccc6c(n5)CCC(N5CCCC5)CC6)cc34)ccc21 (stereo not shown) [Example 63, 8-{5-[7-(Pyrrolidin-1-yl)-5H,6H,7H,8H,9H-cyclohepta[b]pyridin-2-yl]-1H-pyrazolo[3,4-b]pyridin-3-yl}-2,3,4,5-tetrahydro-1,4-benzoxazepin-5-one]"
< 100 nM,< 100 nM,"Cc1cc2c(cc1-c1cnc3[nH]nc(-c4ccc5c(c4)OCCNC5=O)c3c1)CCC(N1CCC[C@H]1C)CC2 (stereo partly drawn) [Example 64, 8-(5-{3-Methyl-7-[(2R)-2-methylpyrrolidin-1-yl]-6,7,8,9-tetrahydro-5H-benzo[7]annulen-2-yl}-1H-pyrazolo[3,4-b]pyridin-3-yl)-2,3,4,5-tetrahydro-1,4-benzoxazepin-5-one]"
< 100 nM,< 100 nM,"C[C@@H]1CCCN1C1CCc2cc(-c3cnc4[nH]nc(-c5ccc6c(c5)OCCNC6=O)c4c3)cc(Cl)c2CC1 (stereo partly drawn) [Example 65, 8-(5-{4-Chloro-7-[(2R)-2-methylpyrrolidin-1-yl]-6,7,8,9-tetrahydro-5H-benzo[7]annulen-2-yl}-1H-pyrazolo[3,4-b]pyridin-3-yl)-2,3,4,5-tetrahydro-1,4-benzoxazepin-5-one]"
< 100 nM,< 100 nM,"C[C@@H]1CCCN1C1CCc2ccc(-c3cnc4[nH]nc(-c5ccc6c(c5)OCCNS6(=O)=O)c4c3)cc2CC1 (stereo partly drawn) [Example 66, 7-(5-{7-[(2R)-2-Methylpyrrolidin-1-yl]-6,7,8,9-tetrahydro-5H-benzo[7]annulen-2-yl}-1H-pyrazolo[3,4-b]pyridin-3-yl)-3,4-dihydro-2H-5,12,2-benzoxathiazepine-1,1-dione]"
